Legend:
[1] = LNP size and polydispersity index (PDI) by dynamic light scattering; format: physicochemical; conditions: for Size: in nm (unit assumed)
Outline: (§1)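 Dynamic light scattering and zeta potential measurements were run on PBS-dialyzed LNPs, which had been formed by microfluidic mixing at 12 ml/min with final lipid at 1.5 mM to 6 mM. RNA content and percent encapsulation were determined by Ribogreen with and without Triton X-100.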

[2] = LNP zeta potential (Zetasizer); format: physicochemical
Outline: as §1

[3] = RNA encapsulation efficacy by Quant-IT Ribogreen kit; format: physicochemical; conditions: for Encapsulation Efficiency %: LNP with cirRNA (SEQ ID NO: 1); for Encapsulation Efficiency: LNP with mRNA (SEQ ID NO: 2)
Outline: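 Encapsulation efficacy came from Ribogreen fluorescence of LNPs compared with Triton X-100-lysed LNPs. The particles carried luciferase-encoding circular or linear RNA at an ionizable lipid:ribonucleotide ratio of 15 or 6.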

Hep G2 cells [4] = test: In vitro expression of firefly-luciferase, Hep G2; format: cell-based
Outline: (§2)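 Transfection used 100 ng/mL luciferase-encoding RNA-LNPs; activity in lysates was determined at 72 h.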

RAW 264.7 cells [5] = test: In vitro expression of firefly-luciferase, RAW 264.7; format: cell-based
Outline: as §2

Hep G2 cells [6] = test: In vitro toxicity (CellTiter-Glo cell viability), Hep G2; format: cell-based;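 also: percent of untreated cells luminescence signal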
Outline: (§3)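 Luminescent ATP read-out (CellTiter-Glo) gives the viability value, taken 72 h after cells were exposed to RNA-loaded lipid nanoparticles at 1 μg/mL.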

RAW 264.7 cells [7] = test: In vitro toxicity (CellTiter-Glo cell viability), RAW 264.7; format: cell-based;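 also: percent of untreated cells luminescence signal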
Outline: as §3

BALB/C mice [8] = test: In vivo expression, whole-body luminescence (IVIS)
Experimental: 6-8 week old, female BALB/C mice were injected with 0.05 mg*kg-1 of RNA-LNPs encoding for firefly-luciferase by intravenous injection. At 6 hours post injection, animals were intraperitoneally injected with 15 mg/ml of Luciferin substrate and whole-body luminescence was determined by a bioluminescent in vivo imaging system (IVIS).

MCP-I = MCP-I cytokine elevation in serum; format: in vivo; conditions: cirRNA (SEQ ID NO: 1) LNPs, mice
Experimental: 6-8 week old, female BALB/C mice were injected with 0.5 mg*kg-1 of RNA LNPs by intravenous injection. At 2 and 24 hours post injection, animals were bled and sera concentrations of MCP-I were determined by an immunoassay (Luminex).

[9] = system: Alanine Aminotransferase (ALT); test: Liver enzyme elevation in serum, ALT; format: in vivo; conditions: cirRNA (SEQ ID NO: 1) LNPs, BALB/C mice, intravenous 0.5 MPK
Experimental: (§4) 6-8 week old, female BALB/C mice were injected with 0.5 mg*kg-1 of RNA LNPs by intravenous injection. At 2 and 24 hours post injection, animals were bled and sera concentrations of Alanine Aminotransferase (ALT) and Aspartate Aminotransferase (AST) were determined by a blood chemistry analyzer.

[10] = system: Aspartate Aminotransferase (AST); test: Liver enzyme elevation in serum, AST; format: in vivo; conditions: cirRNA (SEQ ID NO: 1) LNPs, BALB/C mice, intravenous 0.5 MPK
Experimental: as §4

BALB/C mice [11] = test: Local tolerance determination by footpad injection; format: in vivo; conditions: cirRNA (SEQ ID NO: 1) LNP, 0.175 mg*kg-1 subcutaneous into the footpad, 24 hours post minus prior
Experimental: 6-8 week old, female BALB/C mice were injected with 0.175 mg*kg-1 RNA LNPs by subcutaneous injection into the footpad. Prior to, and 24 hours post injections, injected footpad thickness was determined by a caliper.

[12] = cirRNA (SEQ ID NO: 1) LNPs, firefly-luciferase luminescence, Hep G2 cells
[13] = mRNA (SEQ ID NO: 2) LNP, 100 ng/mL, 72 hours post transfection, luciferase activity
[14] = cirRNA (SEQ ID NO: 1) LNPs, firefly-luciferase luminescence, RAW 264.7 cells
[15] = cirRNA (SEQ ID NO: 1) LNPs, Hep G2 cells
[16] = mRNA (SEQ ID NO: 2) LNP, 1 μg/mL, 72 hours post transfection
[17] = cirRNA (SEQ ID NO: 1) LNPs, RAW 264.7 cells
[18] = cirRNA (SEQ ID NO: 1) LNPs, BALB/C mice
[19] = mRNA (SEQ ID NO: 2) LNP, 0.05 mg*kg-1 intravenous, 6 hours post injection

PDI ([1]; LNP with cirRNA (SEQ ID NO: 1)) | Size ([1]; LNP with cirRNA (SEQ ID NO: 1)) | PDI ([1]; LNP with mRNA (SEQ ID NO: 2)) | Size ([1]; LNP with mRNA (SEQ ID NO: 2)) | Zeta (mV) ([2]; LNP with cirRNA (SEQ ID NO: 1)) | Zeta (mV) ([2]; LNP with mRNA (SEQ ID NO: 2)) | Encapsulation Efficiency % [3] [%] | Encapsulation Efficiency [3] [%] | MCP-I in Sera 2 hours After 0.5 MPK Injection (MCP-I) [pg/mL] | MCP-I in Sera 24 hours After 0.5 MPK Injection (MCP-I) [pg/mL] | SMILES | In vitro Expression HepG2 (Hep G2 cells [4]; [12]) | In vitro Expression HepG2 (Hep G2 cells [4]; [13]) | In vitro Expression RAW (RAW 264.7 cells [5]; [14]) | In vitro Expression RAW (RAW 264.7 cells [5]; [13]) | In vitro Viability HepG2 (Hep G2 cells [6]; [15]) [%] | In vitro Viability HepG2 (Hep G2 cells [6]; [16]) [%] | In vitro Viability RAW (RAW 264.7 cells [7]; [17]) [%] | In vitro Viability RAW (RAW 264.7 cells [7]; [16]) [%] | In vivo Expression (Whole Body) (BALB/C mice [8]; [18]) | In vivo Expression (Whole Body) (BALB/C mice [8]; [19]) | further results
0.258 | 66.18 | 0.1592 | 101.7 | 3.201 | 6.102 | 95 | 94.52 | 4192.67 | 564.30 | CCCCC/C=C\C/C=C\CCCCCCCCN(CCCCCCCC(=O)OC(CCCCCCCC)CCCCCCCC)CCCOC(=O)NCCN(C)C [Lipid 270] | 9.88E+06 | 2.31E+07 | 9.33E+06 | 3.27E+06 | 95 | 116 | 120 | 96 | 9.90E+07 | 3.45E+08 | ALT in Sera (IU/L) 2 hours After 0.5 MPK Injection [9]: 253.00 IU/L; ALT in Sera (IU/L) 24 hours After 0.5 MPK Injection [9]: 79.00 IU/L; AST in Sera (IU/L) 2 hours After 0.5 MPK Injection [10]: 477.67 IU/L; AST in Sera (IU/L) 24 hours After 0.5 MPK Injection [10]: 220.00 IU/L; Footpad Thickness (24 h−0 h, mm) (BALB/C mice [11]): 0.65 mm
0.2068 | 98.73 | 0.1219 | 97.34 | 0.345 | 0.8825 | 93 | 94.51 | 1986.67 | 522.62 | CCCCC/C=C\C/C=C\CCCCCCCCN(CCCCCCCC(=O)OC(CCCCCCCC)CCCCCCCC)CCCOC(=O)NCc1ncc[nH]1 [Lipid 271] | 5.51E+06 | 3.69E+06 | 1.59E+06 | 6.06E+06 | 91 | 117 | 121 | 85 | 8.99E+07 | 8.51E+08 | ALT in Sera (IU/L) 2 hours After 0.5 MPK Injection [9]: 128.33 IU/L; ALT in Sera (IU/L) 24 hours After 0.5 MPK Injection [9]: 114.67 IU/L; AST in Sera (IU/L) 2 hours After 0.5 MPK Injection [10]: 200.67 IU/L; AST in Sera (IU/L) 24 hours After 0.5 MPK Injection [10]: 231.33 IU/L; Footpad Thickness (24 h−0 h, mm) (BALB/C mice [11]): 0.40 mm
0.1464 | 64.42 | 0.07602 | 88.07 | −0.02248 | 0.8258 | 96 | 94.50 | 1659.21 | 120.48 | CCCCC/C=C\C/C=C\CCCCCCCCN(CCCCCCCC(=O)OC(CCCCCCCC)CCCCCCCC)CCCOC(=O)NCCCn1ccnc1 [Lipid 276] | 9.80E+05 | 3.01E+05 | 1.07E+06 | 8.16E+05 | 95 | 115 | 117 | 83 | 1.88E+08 | 1.26E+07 | ALT in Sera (IU/L) 2 hours After 0.5 MPK Injection [9]: 247.67 IU/L; ALT in Sera (IU/L) 24 hours After 0.5 MPK Injection [9]: 52.00 IU/L; AST in Sera (IU/L) 2 hours After 0.5 MPK Injection [10]: 247.33 IU/L; AST in Sera (IU/L) 24 hours After 0.5 MPK Injection [10]: 89.67 IU/L; Footpad Thickness (24 h−0 h, mm) (BALB/C mice [11]): 0.51 mm

Continued, molecule first:

SMILES | PDI ([1]; LNP with cirRNA (SEQ ID NO: 1)) | Size ([1]; LNP with cirRNA (SEQ ID NO: 1)) | PDI ([1]; LNP with mRNA (SEQ ID NO: 2)) | Size ([1]; LNP with mRNA (SEQ ID NO: 2)) | Zeta (mV) ([2]; LNP with cirRNA (SEQ ID NO: 1)) | Zeta (mV) ([2]; LNP with mRNA (SEQ ID NO: 2)) | Encapsulation Efficiency % [3] [%] | Encapsulation Efficiency [3] [%] | MCP-I in Sera 2 hours After 0.5 MPK Injection (MCP-I) [pg/mL] | MCP-I in Sera 24 hours After 0.5 MPK Injection (MCP-I) [pg/mL] | In vitro Expression HepG2 (Hep G2 cells [4]; [12]) | In vitro Expression HepG2 (Hep G2 cells [4]; [13]) | In vitro Expression RAW (RAW 264.7 cells [5]; [14]) | In vitro Expression RAW (RAW 264.7 cells [5]; [13]) | In vitro Viability HepG2 (Hep G2 cells [6]; [15]) [%] | In vitro Viability HepG2 (Hep G2 cells [6]; [16]) [%] | In vitro Viability RAW (RAW 264.7 cells [7]; [17]) [%] | In vitro Viability RAW (RAW 264.7 cells [7]; [16]) [%] | In vivo Expression (Whole Body) (BALB/C mice [8]; [18]) | In vivo Expression (Whole Body) (BALB/C mice [8]; [19]) | further results
CCCCCCCCCC(=O)OCCCCCCCN(CCCCCCCCOC(=O)C(CCCCCC)CCCCCCCC)CCOC(=O)NCCN(C)C (stereo not drawn) [Lipid 197] | 0.14 | 82.64 | 0.07142 | 113.7 | 5.5 | 13.59 | 96 | 79.87 | 1958.67 | 122.47 | 6.41E+05 | 2.51E+07 | 1.87E+04 | 1.19E+07 | 88 | 116 | 0 | 0 | 3.04E+07 | 4.89E+08 | ALT in Sera (IU/L) 2 hours After 0.5 MPK Injection [9]: 106.67 IU/L; ALT in Sera (IU/L) 24 hours After 0.5 MPK Injection [9]: 171.00 IU/L; AST in Sera (IU/L) 2 hours After 0.5 MPK Injection [10]: 215.67 IU/L; AST in Sera (IU/L) 24 hours After 0.5 MPK Injection [10]: 237.67 IU/L; Footpad Thickness (24 h−0 h, mm) (BALB/C mice [11]): 0.08 mm
CCCCC/C=C\CCOC(=O)CCCCCN(CCCCCC(=O)OCC(CCCCCCCC)CCCCCCCCCC)CCOC(=O)NCCN1CCCCC1 (stereo not drawn) [Lipid 245] | 0.12 | 99.5 | 0.1109 | 108.8 | −5.02 | 2.004 | 86 | 85.53 | 2543.33 | 342.29 | 7.24E+05 | 4.35E+06 | 2.68E+05 | 3.81E+06 | 88 | 118 | 94 | 89 | 2.99E+08 | 1.18E+08 | ALT in Sera (IU/L) 2 hours After 0.5 MPK Injection [9]: 136.50 IU/L; ALT in Sera (IU/L) 24 hours After 0.5 MPK Injection [9]: 107.33 IU/L; AST in Sera (IU/L) 2 hours After 0.5 MPK Injection [10]: 387.00 IU/L; AST in Sera (IU/L) 24 hours After 0.5 MPK Injection [10]: 187.67 IU/L; Footpad Thickness (24 h−0 h, mm) (BALB/C mice [11]): 0.68 mm
CCCCC/C=C\C/C=C\CCCCCCCCN(CCCCCCCC(=O)OC(CCCCCCCC)CCCCCCCC)CCCOC(=O)NCCN1CCCCC1 [Lipid 278] | 0.1471 | 91.92 | 0.1831 | 119 | 0.06032 | 0.3567 | 96 | 86.19 | 1815.67 | 1070.74 | 2.22E+07 | 3.75E+07 | 8.67E+06 | 6.01E+06 | 91 | 100 | 132 | 83 | 1.19E+08 | 2.18E+08 | ALT in Sera (IU/L) 2 hours After 0.5 MPK Injection [9]: 177.33 IU/L; ALT in Sera (IU/L) 24 hours After 0.5 MPK Injection [9]: 102.50 IU/L; AST in Sera (IU/L) 2 hours After 0.5 MPK Injection [10]: 275.33 IU/L; AST in Sera (IU/L) 24 hours After 0.5 MPK Injection [10]: 322.67 IU/L; Footpad Thickness (24 h−0 h, mm) (BALB/C mice [11]): 0.63 mm

— patent US12691070B2, “Cationic lipids and preparation method thereof” (RiboX Therapeutics HK Limited, priority 2023, dated 2026)
